Measured values: US20220340633A1 (Adepthera LLC, priority 2016, published 2022)
Entries after “also recorded” stand apart in the source; their conditions may differ. Non-standard residues stand in square brackets, D forms with d. Residues, ends and D or L forms follow the SMILES beside them. *: point of attachment. Palmitoyl = CCCCCCCCCCCCCCCC(=O)*; AEEA = NCCOCCOCC(=O)O

Assays:
[1] = biological target: CLR/RAMP1 receptor (Homo sapiens, UniProt O60894+Q16602); conditions: for receptor specificity of antagonist: CLR/RAMP1 versus CLR/RAMP2
Procedure: (§1) Using a receptor activation assay, the dose-dependent stimulatory response of peptide agonists of the present invention on a CLR/RAMP1 receptor, a CLR/RAMP2, or a CLR/RAMP3 receptor complex was determined. A cell line carrying the recombinant CLR/RAMP1, CLR/RAMP2, or a CLR/RAMP3 receptor was employed in the assay. Peptide agonist activities were tested, in duplicate, at 10 different concentrations, starting with 1.0 μM and serially diluted 3-fold, in DMSO. […] The CLR/RAMP1 cAMP, CLR/RAMP2 arrestin assays, and CLR/RAMP3 cAMP (DiscoveRx, Fremont, Calif.) were used.
(§2) For the analysis of antagonistic activity, the synthetic analogs were pre-incubated with the cells before adding the reference ligand at its EC80.

[2] = biological target: CLR/RAMP3 receptor (Homo sapiens, UniProt O60896+Q16602); experiment: cell-based
Procedure: as §1, §2

[3] = test system: primary human lymphatic endothelia cells (HLEC); experiment: HLEC survival in medium with 0.1% FBS, MTS assay; conditions: 30, 100, and 300 nM, 72 hrs
Procedure: The cells were cultured for 72 hrs, and cell viability was assayed with the MTS assay (Promega).

Chain of CLR/RAMP1 receptor (Q16602 23-461): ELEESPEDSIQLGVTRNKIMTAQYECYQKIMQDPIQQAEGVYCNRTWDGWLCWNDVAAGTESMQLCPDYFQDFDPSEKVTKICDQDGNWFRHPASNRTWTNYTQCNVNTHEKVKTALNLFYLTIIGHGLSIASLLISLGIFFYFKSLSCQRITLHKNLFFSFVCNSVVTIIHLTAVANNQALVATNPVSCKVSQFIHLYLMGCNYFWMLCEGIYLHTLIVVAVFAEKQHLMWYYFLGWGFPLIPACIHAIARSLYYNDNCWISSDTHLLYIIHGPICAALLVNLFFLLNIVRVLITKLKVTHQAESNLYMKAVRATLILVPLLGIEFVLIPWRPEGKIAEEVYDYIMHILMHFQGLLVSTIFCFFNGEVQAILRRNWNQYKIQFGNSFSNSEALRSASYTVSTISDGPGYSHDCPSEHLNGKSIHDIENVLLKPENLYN
Chain of CLR/RAMP1 receptor (O60894 27-148): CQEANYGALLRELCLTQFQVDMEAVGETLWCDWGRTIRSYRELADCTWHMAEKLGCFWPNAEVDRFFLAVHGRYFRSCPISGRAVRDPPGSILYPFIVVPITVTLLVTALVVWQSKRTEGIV
Chain of CLR/RAMP3 receptor (Q16602 23-461): as the sequence (Q16602 23-461) above
Chain of CLR/RAMP3 receptor (O60896 24-148): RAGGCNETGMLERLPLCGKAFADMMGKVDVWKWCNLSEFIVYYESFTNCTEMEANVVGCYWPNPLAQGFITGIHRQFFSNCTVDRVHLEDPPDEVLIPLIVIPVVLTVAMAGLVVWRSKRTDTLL

| Compound | receptor specificity of antagonist [1] | HLEC survival (in words) [3] | other results |
| --- | --- | --- | --- |
| CCCCCCCCCCCCCCCC(=O)N[C@@H](CCCCN)C(=O)N[C@H](C(=O)N[C@@H](CCC(N)=O)C(=O)N[C@@H](CC(N)=O)C(=O)N[C@@H](CC(C)C)C(=O)N[C@@H](CO)C(=O)N[C@@H](Cc1c[nH]cn1)C(=O)N[C@@H](CCCNC(=N)N)C(=O)N[C@@H](CC(C)C)C(=O)N[C@@H](Cc1c[nH]c2ccccc12)C(=O)N[C@@H](CCC(N)=O)C(=O)N[C@@H](CC(C)C)C(=O)N[C@@H](CCSC)C(=O)NCC(=O)N1CCC[C@H]1C(=O)N[C@@H](C)C(=O)NCC(=O)N[C@@H](CO)C(=O)N[C@@H](C)C(=O)N1CCC[C@H]1C(=O)N[C@H](C(=O)N[C@@H](CC(=O)O)C(=O)N1CCC[C@H]1C(=O)N[C@@H](CO)C(=O)N[C@@H](CO)C(=O)N1CCC[C@H]1C(=O)N[C@@H](Cc1c[nH]cn1)C(=O)N[C@@H](CO)C(=O)N[C@@H](Cc1ccc(O)cc1)C(N)=O)C(C)C)C(C)C [SEQ ID NO: 120] | CLR/RAMP1-specific |  |  |
| CCCCCCCCCCCCCCCC(=O)NCCCC[C@H](NC(=O)COCCOCCN)C(=O)N[C@H](C(=O)N[C@@H](CCC(N)=O)C(=O)N[C@@H](CCCCN)C(=O)N[C@@H](CC(C)C)C(=O)N[C@@H](C)C(=O)N[C@@H](Cc1c[nH]cn1)C(=O)N[C@@H](CCC(N)=O)C(=O)N[C@H](C(=O)N[C@@H](Cc1ccc(O)cc1)C(=O)N[C@@H](CCC(N)=O)C(=O)N[C@@H](Cc1ccccc1)C(=O)N[C@H](C(=O)N[C@@H](CC(=O)O)C(=O)N[C@@H](CCCCN)C(=O)N[C@@H](CC(=O)O)C(=O)N[C@@H](CO)C(=O)N[C@@H](C)C(=O)N1CCC[C@H]1C(=O)N[C@H](C(=O)N[C@@H](CC(=O)O)C(=O)N1CCC[C@H]1C(=O)N[C@@H](CO)C(=O)N[C@@H](CO)C(=O)N1CCC[C@H]1C(=O)N[C@@H](Cc1c[nH]cn1)C(=O)N[C@@H](CO)C(=O)N[C@@H](Cc1ccc(O)cc1)C(N)=O)C(C)C)[C@@H](C)O)[C@@H](C)CC)C(C)C [SEQ ID NO: 112] (H-[AEEA]K(Palmitoyl)VQKLAHQIYQFTDKDSAPVDPSSPHSY-NH2) |  |  | IC50 [2]: 0.8 to 9.2 nM |
| CCCCCCCCCCCCCCCC(=O)N[C@@H](CCCCN)C(=O)N[C@H](C(=O)N[C@@H](CCC(N)=O)C(=O)N[C@@H](CCCCN)C(=O)N[C@@H](CC(C)C)C(=O)N[C@@H](C)C(=O)N[C@@H](Cc1c[nH]cn1)C(=O)N[C@@H](CCC(N)=O)C(=O)N[C@H](C(=O)N[C@@H](Cc1ccc(O)cc1)C(=O)N[C@@H](CCC(N)=O)C(=O)N[C@@H](Cc1ccccc1)C(=O)N[C@H](C(=O)N[C@@H](CC(=O)O)C(=O)N[C@@H](CCCCN)C(=O)N[C@@H](CO)C(=O)N[C@@H](C)C(=O)N1CCC[C@H]1C(=O)N[C@H](C(=O)N[C@@H](CC(=O)O)C(=O)N1CCC[C@H]1C(=O)N[C@@H](CO)C(=O)N[C@@H](CO)C(=O)N1CCC[C@H]1C(=O)N[C@@H](Cc1c[nH]cn1)C(=O)N[C@@H](CO)C(=O)N[C@@H](Cc1ccc(O)cc1)C(N)=O)C(C)C)[C@@H](C)O)[C@@H](C)CC)C(C)C [SEQ ID NO: 125] | pan-specific |  |  |
| CC[C@H](C)[C@H](NC(=O)[C@H](CCC(N)=O)NC(=O)[C@H](Cc1c[nH]cn1)NC(=O)[C@H](C)NC(=O)[C@H](CC(C)C)NC(=O)[C@H](CCCCN)NC(=O)[C@H](CCC(N)=O)NC(=O)[C@@H](NC(=O)[C@@H](NC(C)=O)[C@@H](C)O)C(C)C)C(=O)N[C@@H](Cc1ccc(O)cc1)C(=O)N[C@@H](CCC(N)=O)C(=O)N[C@@H](Cc1ccccc1)C(=O)N[C@H](C(=O)N[C@@H](CC(=O)O)C(=O)N[C@@H](CCCCN)C(=O)N[C@@H](CC(=O)O)C(=O)N[C@@H](CCCCN)C(=O)N[C@@H](CC(=O)O)C(=O)N[C@@H](CC(N)=O)C(=O)N[C@@H](CO)C(=O)N[C@@H](C)C(=O)N1CCC[C@H]1C(=O)N[C@H](C(=O)N[C@@H](CC(=O)O)C(=O)N1CCC[C@H]1C(=O)N[C@@H](CO)C(=O)N[C@@H](CO)C(=O)N1CCC[C@H]1C(=O)N[C@@H](Cc1c[nH]cn1)C(=O)N[C@@H](CO)C(=O)N[C@@H](Cc1ccc(O)cc1)C(N)=O)C(C)C)[C@@H](C)O [SEQ ID NO: 76] |  |  | antagonistic activity toward CLR/RAMP1 and/or CLR/RAMP2 receptor signaling (in words) ([1]; statement covers CGRP-stimulated CLR/RAMP1 and ADM-stimulated CLR/RAMP2): mildly improved antagonistic activity |
| CCCCCCCCCCCCCCCC(=O)N[C@@H](CCCCN)C(=O)N[C@H](C(=O)N[C@@H](CCCCN)C(=O)N[C@@H](CCCCN)C(=O)N[C@H](C(=O)N[C@@H](CC(C)C)C(=O)N[C@@H](CCCNC(=N)N)C(=O)N[C@H](C(=O)NCC(=O)N[C@H]1CSSC[C@@H](C(=O)N[C@H](C(=O)N[C@H](C(=O)N[C@@H](CCC(N)=O)C(=O)N[C@@H](CCCCN)C(=O)N[C@@H](CC(C)C)C(=O)N[C@@H](C)C(=O)N[C@@H](Cc2c[nH]cn2)C(=O)N[C@@H](CCC(N)=O)C(=O)N[C@H](C(=O)N[C@@H](Cc2ccc(O)cc2)C(=O)N[C@@H](CCC(N)=O)C(=O)N[C@@H](Cc2ccccc2)C(=O)N[C@H](C(=O)N[C@@H](CC(=O)O)C(=O)N[C@@H](CCCCN)C(=O)N[C@@H](CC(=O)O)C(=O)N[C@@H](CCCCN)C(=O)N[C@@H](CC(=O)O)C(=O)N[C@@H](CC(N)=O)C(=O)N[C@@H](CO)C(=O)N[C@@H](C)C(=O)N2CCC[C@H]2C(=O)N[C@H](C(=O)N[C@@H](CC(=O)O)C(=O)N2CCC[C@H]2C(=O)N[C@@H](CO)C(=O)N[C@@H](CO)C(=O)N2CCC[C@H]2C(=O)N[C@@H](Cc2c[nH]cn2)C(=O)N[C@@H](CO)C(=O)N[C@@H](Cc2ccc(O)cc2)C(N)=O)C(C)C)[C@@H](C)O)[C@@H](C)CC)C(C)C)[C@@H](C)O)NC(=O)[C@H]([C@@H](C)O)NC(=O)CNC(=O)[C@H](Cc2ccccc2)NC(=O)[C@H](CCCNC(=N)N)NC1=O)[C@@H](C)O)[C@@H](C)O)[C@@H](C)O [SEQ ID NO: 38] |  | dose-dependently stimulated; also recorded: significantly promote |  |
| CCCCCCCCCCCCCCCC(=O)N[C@@H](CCCCN)C(=O)N[C@H](C(=O)N[C@@H](CCCCN)C(=O)N[C@@H](CCCCN)C(=O)N[C@H](C(=O)N[C@@H](CC(C)C)C(=O)N[C@@H](CCCNC(=N)N)C(=O)N[C@H](C(=O)NCC(=O)N[C@H]1CSSC[C@@H](C(=O)N[C@H](C(=O)N[C@H](C(=O)N[C@@H](CCC(N)=O)C(=O)N[C@@H](CCCCN)C(=O)N[C@@H](CC(C)C)C(=O)N[C@@H](C)C(=O)N[C@@H](Cc2c[nH]cn2)C(=O)N[C@@H](CCC(N)=O)C(=O)N[C@H](C(=O)N[C@@H](Cc2ccc(O)cc2)C(=O)N[C@@H](CCC(N)=O)C(=O)N[C@@H](Cc2ccccc2)C(=O)N[C@H](C(=O)N[C@@H](CC(=O)O)C(=O)N[C@@H](CCCCN)C(=O)N[C@@H](CC(=O)O)C(=O)N[C@@H](CCCCN)C(=O)N[C@@H](CC(=O)O)C(=O)N[C@@H](CC(N)=O)C(=O)N[C@H](C(=O)N[C@@H](C)C(=O)N2CCC[C@H]2C(=O)N[C@H](C(=O)N[C@@H](CC(=O)O)C(=O)N2CCC[C@H]2C(=O)N[C@@H](CO)C(=O)N[C@@H](CO)C(=O)N2CCC[C@H]2C(=O)N[C@@H](Cc2c[nH]cn2)C(=O)N[C@@H](CO)C(=O)N[C@@H](Cc2ccc(O)cc2)C(N)=O)C(C)C)C(C)C)[C@@H](C)O)[C@@H](C)CC)C(C)C)[C@@H](C)O)NC(=O)[C@H]([C@@H](C)O)NC(=O)CNC(=O)[C@H](Cc2ccccc2)NC(=O)[C@H](CCCNC(=N)N)NC1=O)[C@@H](C)O)[C@@H](C)O)[C@@H](C)O [SEQ ID NO: 40] |  | dose-dependently stimulated; also recorded: significantly promote |  |
